Measured values taken from patent US6518243B1, “Desleucyl glycopeptide antibiotics and methods of making same” (Trustees of Princeton University, priority 1999, dated 2003).

Columns and labels:
[1] = test system: S. epidermidis (ATCC 12228); test: Zone of inhibition screen, 96 well agar array format; assay type: cell-based; design: scale not given here
In short: (§1)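 Each compound was tested for antibacterial activity against a shared bacterial panel, with screening carried out on agar in a 96-well array.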

E. faecalis (CL 4877) = test: as above; assay type: cell-based; design: scale not given here
In short: as §1

[2] = zone of inhibition relative to 1 mg/ml stock solution of p-chlorobiphenylvancomycin
[3] = zone of inhibition relative to 1 mg/ml p-chlorobiphenylvancomycin

Row | SMILES | zone score, S. epidermidis ATCC 12228 [1, 2] | zone score, E. faecalis CL 4877 (E. faecalis (CL 4877); [2]) | zone score, S. epidermidis ATCC 12228 [1, 3] | zone score, E. faecalis CL 4877 (E. faecalis (CL 4877); [3])
1 | CC1OC(OC2C(Oc3c4cc5cc3Oc3ccc(cc3Cl)C(O)C3NC(=O)C(NC(=O)C5NC(=O)C(CC(N)=O)NC(=O)C(NC(=O)C[N+](C)(C)C)C(O)c5ccc(c(Cl)c5)O4)c4ccc(O)c(c4)-c4c(O)cc(O)cc4C(C(=O)O)NC3=O)OC(CO)C(O)C2O)CC(C)(NCc2ccc(-c3ccc(Cl)cc3)cc2)C1O (stereo not drawn) [Compound 129] | 2 | 2 |  | 
2 | CC1OC(OC2C(Oc3c4cc5cc3Oc3ccc(cc3Cl)C(O)C3NC(=O)C(NC(=O)C5NC(=O)C(CC(N)=O)NC(=O)C(NC(=O)CC(NC(=O)OC(C)(C)C)C(N)=O)C(O)c5ccc(c(Cl)c5)O4)c4ccc(O)c(c4)-c4c(O)cc(O)cc4C(C(=O)O)NC3=O)OC(CO)C(O)C2O)CC(C)(NCc2ccc(-c3ccc(Cl)cc3)cc2)C1O (stereo not drawn) [Compound 134] | 2 | 2 |  | 
3 | CC1OC(OC2C(Oc3c4cc5cc3Oc3ccc(cc3Cl)[C@@H](O)[C@@H](NC(=O)/C=C\C(N)=O)C(=O)N[C@@H](CC(N)=O)C(=O)N[C@H]5C(=O)NC3C(=O)N[C@H](C(=O)N[C@@H](C(=O)O)c5cc(O)cc(O)c5-c5cc3ccc5O)[C@H](O)c3ccc(c(Cl)c3)O4)OC(CO)C(O)C2O)CC(C)(NCc2ccc(-c3ccc(Cl)cc3)cc2)C1O (stereo partly drawn) [Compound 170] | 2 | 2 |  | 
4 | CSCCC(NC(C)=O)C(=O)NC1C(=O)NC(CC(N)=O)C(=O)NC2C(=O)NC3C(=O)NC(C(=O)NC(C(=O)O)c4cc(O)cc(O)c4-c4cc3ccc4O)C(O)c3ccc(c(Cl)c3)Oc3cc2cc(c3OC2OC(CO)C(O)C(O)C2OC2CC(C)(NCc3ccc(-c4ccc(Cl)cc4)cc3)C(O)C(C)O2)Oc2ccc(cc2Cl)C1O (stereo not drawn) [Compound 182] | 2 | 2 |  | 
5 | CC1OC(OC2C(Oc3c4cc5cc3Oc3ccc(cc3Cl)C(O)C3NC(=O)C(NC(=O)C5NC(=O)C(CC(N)=O)NC(=O)C(NC(=O)CNC=O)C(O)c5ccc(c(Cl)c5)O4)c4ccc(O)c(c4)-c4c(O)cc(O)cc4C(C(=O)O)NC3=O)OC(CO)C(O)C2O)CC(C)(NCc2ccc(-c3ccc(Cl)cc3)cc2)C1O (stereo not drawn) [Compound 193] | 2 | 2 |  | 
6 | CC1OC(OC2C(Oc3c4cc5cc3Oc3ccc(cc3Cl)C(O)C3NC(=O)C(NC(=O)C5NC(=O)C(CC(N)=O)NC(=O)C(NC(=O)Cn5cnnn5)C(O)c5ccc(c(Cl)c5)O4)c4ccc(O)c(c4)-c4c(O)cc(O)cc4C(C(=O)O)NC3=O)OC(CO)C(O)C2O)CC(C)(NCc2ccc(-c3ccc(Cl)cc3)cc2)C1O (stereo not drawn) [Compound 228] |  |  | 2 | 2
7 | CC1OC(OC2C(Oc3c4cc5cc3Oc3ccc(cc3Cl)C(O)C3NC(=O)C(NC(=O)C5NC(=O)C(CC(N)=O)NC(=O)C(NC(=O)c5cccnc5N)C(O)c5ccc(c(Cl)c5)O4)c4ccc(O)c(c4)-c4c(O)cc(O)cc4C(C(=O)O)NC3=O)OC(CO)C(O)C2O)CC(C)(NCc2ccc(-c3ccc(Cl)cc3)cc2)C1O (stereo not drawn) [Compound 237] |  |  | 2 | 2
8 | CC1OC(OC2C(Oc3c4cc5cc3Oc3ccc(cc3Cl)C(O)C3NC(=O)C(NC(=O)C5NC(=O)C(CC(N)=O)NC(=O)C(NC(=O)c5cccc(C(F)(F)F)c5)C(O)c5ccc(c(Cl)c5)O4)c4ccc(O)c(c4)-c4c(O)cc(O)cc4C(C(=O)O)NC3=O)OC(CO)C(O)C2O)CC(C)(NCc2ccc(-c3ccc(Cl)cc3)cc2)C1O (stereo not drawn) [Compound 247] |  |  | 2 | 2
9 | CC1OC(OC2C(Oc3c4cc5cc3Oc3ccc(cc3Cl)C(O)C3NC(=O)C(NC(=O)C5NC(=O)C(CC(N)=O)NC(=O)C(NC(=O)c5cccc(O)n5)C(O)c5ccc(c(Cl)c5)O4)c4ccc(O)c(c4)-c4c(O)cc(O)cc4C(C(=O)O)NC3=O)OC(CO)C(O)C2O)CC(C)(NCc2ccc(-c3ccc(Cl)cc3)cc2)C1O (stereo not drawn) [Compound 277] |  |  | 2 | 2
